Measurements: publication PMC10683027, “Discovery of tert-Butyl Ester Based 6-Diazo-5-oxo-L-norleucine Prodrugs for Enhanced Metabolic Stability and Tumor Delivery” (Journal of Medicinal Chemistry, 2023)
Values after ≈ are worked out from the molar mass of the structure shown.

Key:
[1] = Single time point pharmacokinetic screening, released DON in plasma and tumor of EL4 tumor-bearing mice; format: in vivo, C57BL/6/CES1–/– mice; details: 1 mg/kg DON equivalent SC; 30 min
Procedure: C57BL/6/CES1^–/– mice were obtained as a gift from the United States Army Medical Research Institute of Chemical Defense, Maryland, USA; breeding was performed in the Johns Hopkins animal facility and was conducted according to protocols reviewed and approved by the Johns Hopkins Institutional Animal Care and Use Committee in compliance with the Association for Assessment and Accreditation of Laboratory Animal Care International (AAALAC) and the Public Health Service Policy on the Humane Care and Use of Laboratory Animals (PHS Policy). Male and female C57BL/6 mice (weighing between 25 and 30 g) 6–8 weeks of age were used for the study. The animals were maintained on a 12 h light–dark cycle with ad libitum access to food (certified laboratory food: Teklad 18% Protein Extruded Rodent Diet) and water. EL4 mouse lymphoma cells were obtained as a gift from the laboratory of Dr. Jonathan Powell (Johns Hopkins University, Baltimore, MD) and maintained in RPMI 1640 medium 1X (Corning, cat. no. 10-040-CV) with 10% (v/v) fetal bovine serum (Corning, cat. no. 35-011-CV), 1% (v/v) antimycotic/antibiotic (Corning, cat. no. 30-004-CI), 2 mM L-glutamine (Corning, cat. no. 25-005-CI), and 10 mM HEPES (Corning, cat. no. 25-060-CI) in a 5% (v/v) CO2 and 95% (v/v) air incubator prior to subcutaneous (SC) injection (1 × 10^6 cells in 0.2 mL of phosphate-buffered saline) on the flank of each mouse. […]

[2] = Metabolic stability in mouse intestinal homogenate (GIh); details: for Intestinal homogenate: supplementary CSV, unit not given, matches Table 1 % remaining at 1 h, in %
[3] = Metabolic stability in mouse plasma; details: for remaining at 1 h, 10 µM: CES1–/–, mouse, plasma; for Plasma: supplementary CSV, unit not given, matches Table 1 % remaining at 1 h, in %
[4] = parameters: method as in PMID 13489662; details: 2 weeks or more of DON therapy; cited from earlier work
hematologic malignancies = test system: hematologic malignancies; parameters: method as in PMID 13918321; details: DON combination with standard 6-mercaptopurine (6-MP) therapy; cited from earlier work
[5] = parameters: method as in PMID 36383674; details: cited from earlier work
P493B lymphoma cells = experiment: Cell viability assay; format: cell-based; details: Homo sapiens, 72 h, 72 h incubation
Procedure: Cell proliferation assays were performed as we have previously described.[19] Briefly, P493B lymphoma cells were plated in 96-well plates at a density of 20 000 cells/well in a final volume of 100 μL of growth media. P11, or DRP-104, was added to cells in half-log serial dilutions with a final concentration of 0.2% DMSO. Cells were allowed to proliferate for 72 h, and thereafter, 20 μL of CellTiter 96 AQueous (Promega no. 3580) was added per well and incubated for 2 h. Absorbance was measured at 490 nm. Relative cell viability was calculated from the difference between untreated cell wells (100%) and media well without cells (0%).

[6] = Aqueous solubility assay in PBS buffer (pH 7.4); format: physicochemical; details: PBS buffer pH 7.4; 37 °C; 1 h
Procedure: (§1) The aqueous solubility was determined as previously reported with minor modifications.[48] Briefly, an excess amount of P11 or DRP-104 was added to PBS buffer (pH 7.4) and sonicated for 1 h at 37 °C to ensure saturation. After 1 h, the solution was filtered (0.45 μm PTFE), and the filtrate was diluted appropriately, and the concentration of each analyte was determined via LC–MS. Chemical stabilities of DRP-104 and P11 were done as previously described[18] with modifications. For chemical stability, prodrugs were spiked (10 μM) in buffer at pH 7.4 and incubated at 37 °C for 24 h. Prodrug disappearance was monitored using the developed HRMS methods.

[7] = parameters: method as in printed; details: background statement; ref not given; cited from earlier work
[8] = test system: P493B lymphoma cells suspended in human plasma; experiment: Human tumor cell to plasma partitioning assay; format: cell-based; details: 20 μM; 1 h; human plasma fraction
Procedure: Human tumor cell to plasma partitioning assays were conducted as we have previously described.[25] Briefly, P493B lymphoma cells were grown at 37 °C, in a humidified atmosphere with 5% CO2. Cell confluency was estimated, and cells were harvested after achieving >80% confluency and centrifuged at 200g for 5 min at 25 °C. The obtained cell pellet was resuspended in 20 mL of Dulbecco’s phosphate-buffered saline (DPBS; Gibco, USA, cat. no. 14-190-144) maintained at 37 °C, and cell count was determined using an automated cell counter (Bio-Rad, USA). Cell suspension in DPBS was further centrifuged at 200g for 5 min at 25 °C, and the cell pellet was resuspended in human plasma (Innovative Research, USA) for partitioning assessment. The final cell density after resuspending in plasma was 10 million cells/mL of plasma. Partitioning assessment was performed in triplicate. Preincubated (37 °C for 5 min) cell–plasma suspension was spiked with DRP-104 or P11 at a final concentration of 20 μM and incubated at 37 °C for 1 h. Following incubation, a 1 mL aliquot of cell–plasma suspension was centrifuged at 1000g for 5 min at 4 °C, and supernatant plasma as well as the cell pellet was collected and stored at −80 °C until bioanalysis. Both plasma and cell pellet fractions were analyzed for intact prodrug and DON levels. […]

[9] = Chemical (aqueous) stability in buffer pH 7.4; format: physicochemical; details: 10 μM, pH 7.4 PBS, 37 °C, 24 h, HRMS/LCMS
Procedure: as §1

[10] = CES1–/–, mouse, intestinal homogenate

Row | SMILES | remaining at 1 h, 10 µM [2, 10] | Intestinal homogenate [2] | remaining at 1 h, 10 µM [3] | Plasma [3] | further results
1 | CN(C)CC(=O)N[C@@H](CCc1ccccc1)C(=O)N[C@@H](CCC(=O)C=[N+]=[N-])C(=O)OC(C)(C)C [Prodrug P14, tert-Butyl (S)-6-Diazo-2-((S)-2-(2-(dimethylamino)acetamido)-4-phenylbutanamido)-5-oxohexanoate] | 97 ± 3% | 97 ± 3 | 102 ± 2% | 102 ± 2 | preferential DON tumor versus plasma delivery [1]: maintained the preferential DON tumor versus plasma delivery
2 | CC(C)(C)OC(=O)[C@H](CCC(=O)C=[N+]=[N-])NC(=O)[C@H](Cc1c[nH]c2ccccc12)NC(=O)CN1CCOCC1 [Prodrug P7, tert-Butyl (S)-2-((S)-3-(1H-Indol-3-yl)-2-(2-morpholinoacetamido)propanamido)-6-diazo-5-oxohexanoate] | 83 ± 1% | 83 ± 1 | 95 ± 3% |  | 
3 | CN(C)CC(=O)N[C@@H](Cc1c[nH]c2ccccc12)C(=O)N[C@@H](CCC(=O)C=[N+]=[N-])C(=O)OC(C)(C)C [Prodrug P9, tert-Butyl (S)-6-Diazo-2-((S)-2-(2-(dimethylamino)acetamido)-3-(1H-indol-3-yl)propanamido)-5-oxohexanoate] | 66 ± 1% | 66 ± 1 | 102 ± 2% | 102 ± 2 | 
4 | CC(=O)N[C@@H](Cc1c[nH]c2ccccc12)C(=O)N[C@@H](CCC(=O)C=[N+]=[N-])C(=O)OC(C)(C)C [Prodrug P5, tert-Butyl (S)-2-((S)-2-Acetamido-3-(1H-indol-3-yl)propanamido)-6-diazo-5-oxohexanoate] | 99 ± 1% | 99 ± 1 | 92 ± 1% | 92 ± 1 | remaining at 1 h, 10 μM [2, 10]: > 50%
5 | CN(C)CC(=O)N[C@@H](Cc1ccc(C(F)(F)F)cc1)C(=O)N[C@@H](CCC(=O)C=[N+]=[N-])C(=O)OC(C)(C)C [Prodrug P17, tert-Butyl (S)-6-Diazo-2-((S)-2-(2-(dimethylamino)acetamido)-3-(4-(trifluoromethyl)phenyl)propanamido)-5-oxohexanoate] | 76 ± 1% | 76 ± 1 | 70 ± 14% | 70 ± 14 | 
6 | C[C@H](NC(=O)CN(C)C)C(=O)N[C@@H](CCC(=O)C=[N+]=[N-])C(=O)OC(C)(C)C [Prodrug P19, tert-Butyl (S)-6-Diazo-2-((S)-2-(2-(dimethylamino)acetamido)propanamido)-5-oxohexanoate] | 86 ± 4% | 86 ± 4 | 99 ± 2% | 99 ± 2 | 
7 | CN(C)CC(=O)N[C@@H](CC(C)(C)C)C(=O)N[C@@H](CCC(=O)C=[N+]=[N-])C(=O)OC(C)(C)C [Prodrug P21, tert-Butyl (S)-6-Diazo-2-((S)-2-(2-(dimethylamino)acetamido)-4,4-dimethylpentanamido)-5-oxohexanoate] | 68 ± 1% | 68 ± 1 | 98 ± 3% | 98 ± 3 | 
8 | [N-]=[N+]=CC(=O)CC[C@H](N)C(=O)O [DON, 6-Diazo-5-oxo-L-norleucine] |  |  |  |  | patients with disease stability or regression [4]: 66%; patients with complete bone marrow remissions (hematologic malignancies): 42%
9 | CN(C)CC(=O)N[C@@H](Cc1ccc(F)cc1)C(=O)N[C@@H](CCC(=O)C=[N+]=[N-])C(=O)OC(C)(C)C [Prodrug P15, tert-Butyl (S)-6-Diazo-2-((S)-2-(2-(dimethylamino)acetamido)-3-(4-fluorophenyl)propanamido)-5-oxohexanoate] | 67 ± 1% | 67 ± 1 | 108 ± 1% | 108 ± 1 | 
10 | CC(=O)N[C@@H](Cc1c[nH]c2ccccc12)C(=O)N[C@@H](CCC(=O)C=[N+]=[N-])C(=O)OC(C)C [DRP-104, isopropyl (S)-2-((S)-2-acetamido-3-(1H-indol-3-yl)-propanamido)-6-diazo-5-oxo-hexanoate, reference compound] | 0% | 0 ± 0 | 94 ± 1% | 94 ± 1 | fold greater delivery of DON to tumor versus GI tissues [5]: 11; EC50 (P493B lymphoma cells): ~1 µM; solubility at 1 h [6]: 240 ± 30 µg/mL (≈ 544 µM); aqueous solubility (intrinsic) [7]: < 1000 µg/mL; stability and DON release in human plasma [8]: stable in human plasma with no DON release; chemical stability in buffer [9]: remained intact without any degradation; chemical stability in buffer ([9]; listed as DRP 104): no degradation
11 | CN(C)CC(=O)N[C@@H](Cc1cccc(F)c1)C(=O)N[C@@H](CCC(=O)C=[N+]=[N-])C(=O)OC(C)(C)C [Prodrug P16, tert-Butyl (S)-6-Diazo-2-((S)-2-(2-(dimethylamino)acetamido)-3-(3-fluorophenyl)propanamido)-5-oxohexanoate] | 69 ± 7% | 69 ± 7 | 99 ± 3% | 99 ± 3 | 
